Here are results for 1 molecule from PubChem BioAssay AID2044 (Broad Institute, 2009).

Inconclusive results are not listed.

The test system of this assay is T. cruzi beta-gal in NIH3T3, GalScreen luminescence, 90 h. In words: inhibitors of intracellular T. cruzi replication, confirmation, NIH3T3 host cells, beta-gal luminescence (AID 2044).

For `C#CCOCCOCCOCCNc1nc(N2CCN(C(=O)CCCCCCCCCCNC(=O)Cn3cc(C[C@@H](C)O)nn3)CC2)nc(N2CCN(C(=O)CCCCCCCCCCNC(=O)[C@H](CCCN=C(N)N)n3cc(C[C@@H](C)CC)nn3)CC2)n1`, the EC50 was 967 nM.
